{"source": "paper PMC7179274", "about": "“6′-β-Fluoro-Homoaristeromycin and 6′-Fluoro-Homoneplanocin A Are Potent Inhibitors of Chikungunya Virus Replication through Their Direct Effect on Viral Nonstructural Protein 1” (Antimicrobial Agents and Chemotherapy, 2020)", "biological_target": "T1, SFV nsP1 K231R+K300E (Semliki forest virus, UniProt P08411, K231R/K300E)", "T1 sequence (P08411 1-537 K231R/K300E)": "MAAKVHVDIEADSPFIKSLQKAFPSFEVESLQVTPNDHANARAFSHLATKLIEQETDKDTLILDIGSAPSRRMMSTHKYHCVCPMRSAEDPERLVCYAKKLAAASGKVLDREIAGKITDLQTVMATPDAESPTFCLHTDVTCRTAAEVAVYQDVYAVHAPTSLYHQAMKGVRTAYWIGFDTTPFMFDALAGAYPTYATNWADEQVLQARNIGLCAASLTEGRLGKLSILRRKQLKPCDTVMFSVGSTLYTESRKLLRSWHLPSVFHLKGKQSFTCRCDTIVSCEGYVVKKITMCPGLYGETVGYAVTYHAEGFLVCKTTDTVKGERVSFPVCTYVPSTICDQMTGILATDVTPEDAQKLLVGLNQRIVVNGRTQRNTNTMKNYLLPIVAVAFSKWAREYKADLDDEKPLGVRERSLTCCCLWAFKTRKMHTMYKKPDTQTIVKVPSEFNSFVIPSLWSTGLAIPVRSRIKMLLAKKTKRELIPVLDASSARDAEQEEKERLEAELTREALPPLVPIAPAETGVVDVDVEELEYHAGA", "type": "biochemical"}
{"smiles": "Nc1ncnc2c1ncn2C1C(F)=C(CCO)C(O)C1O", "note": "(stereo not shown) [FHNA, 6′-fluoro-homoneplanocin A]", "values": [{"measurement": "Response of mutant vs wt SFV nsP1 to treatment", "setting": "50 μM to 1 mM, standard conditions", "value": "no difference between wt and mutant SFV nsP1 proteins"}, {"measurement": "Further reduction in signal in the presence of NAD+", "setting": "1 mM compound + 1 mM NAD+, absence of DTT", "value": "about 6%"}, {"measurement": "Reduction of the signal", "setting": "1 mM compound + 1 mM NAD+, nonreducing conditions", "value": 25, "unit": "%"}, {"measurement": "Reduction in signal", "setting": "1 mM, nonreducing conditions (absence of DTT)", "value": "about 20%"}]}
